Test results: ChEMBL document CHEMBL1201862, “PubChem BioAssay data set” (2004)
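How tested: cells in 96-well plates exposed to compound for 48 hours at five concentrations. At the GI50, growth is halved.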 Activity calls are given as the source filed them. No stated cut-off is given here; in the data, active = GI50 up to about 1.1 µM and inactive = higher.

What was measured:
Experiment in all cases: NCI-60 cell line screen, 48 h
A498 = test system: A498
IGROV-1 = test system: IGROV-1
SNB-78 = test system: SNB-78
Malme-3M = test system: Malme-3M
UO-31 = test system: UO-31
LOX IMVI = test system: LOX IMVI
SN12C = test system: SN12C
RXF 393 = test system: RXF 393
HT-29 = test system: HT-29
CCRF-CEM = test system: CCRF-CEM
SF-539 = test system: SF-539
A549 = test system: A549
ACHN = test system: ACHN
LXFL 529 = test system: LXFL 529
UACC-62 = test system: UACC-62
OVCAR-8 = test system: OVCAR-8
DLD-1 = test system: DLD-1
CAKI-1 = test system: CAKI-1

Measured: GI50

N#CC(C(=O)/C(=N/NC(=O)c1ccccc1O)C(C#N)c1ccc(Br)cc1)c1ccc(Br)cc1 (stereo not given)
inactive: A498 13.7 µM | IGROV-1 15.7 µM | SNB-78 4.75 µM | Malme-3M 11.9 µM | UO-31 13.3 µM | LOX IMVI 7.82 µM | SN12C 9.12 µM | RXF 393 4.71 µM | HT-29 13.3 µM | CCRF-CEM 2.23 µM | SF-539 10.6 µM | A549 14.2 µM | ACHN 13.7 µM | LXFL 529 3.32 µM | UACC-62 6.71 µM | OVCAR-8 6.43 µM | DLD-1 4.79 µM

NC(=O)C(c1ccccc1)N1CCOCC1 (stereo not given)
inactive: A498 > 100 µM | IGROV-1 > 100 µM | SNB-78 > 100 µM | Malme-3M > 100 µM | UO-31 > 100 µM | LOX IMVI > 100 µM | CAKI-1 > 100 µM | SN12C > 100 µM | RXF 393 > 100 µM | HT-29 > 100 µM | CCRF-CEM > 100 µM | SF-539 > 100 µM | A549 > 100 µM | ACHN > 100 µM | LXFL 529 > 100 µM | UACC-62 > 100 µM | OVCAR-8 > 100 µM | DLD-1 > 100 µM

CCOC(=N)CC(=O)NC(C)c1ccccc1 (stereo not given)
inactive: A498 > 100 µM | IGROV-1 > 100 µM | SNB-78 > 100 µM | Malme-3M > 100 µM | UO-31 > 100 µM | LOX IMVI > 100 µM | CAKI-1 > 100 µM | SN12C > 100 µM | RXF 393 > 100 µM | HT-29 > 100 µM | CCRF-CEM > 100 µM | SF-539 > 100 µM | A549 > 100 µM | ACHN > 100 µM | LXFL 529 > 100 µM | UACC-62 > 100 µM | OVCAR-8 > 100 µM | DLD-1 > 100 µM

CCc1ccccc1NC(=O)/C(=N/O)C(C)=O
inactive: A498 > 100 µM | IGROV-1 > 100 µM | SNB-78 > 100 µM | Malme-3M > 100 µM | UO-31 > 100 µM | LOX IMVI > 100 µM | CAKI-1 > 100 µM | SN12C 96.8 µM | RXF 393 > 100 µM | HT-29 > 100 µM | CCRF-CEM > 100 µM | SF-539 > 100 µM | A549 > 100 µM | ACHN > 100 µM | LXFL 529 > 100 µM | UACC-62 > 100 µM | OVCAR-8 > 100 µM | DLD-1 > 100 µM

Nc1c2ccccc2nc2c(C(=O)Nc3ccc(S(N)(=O)=O)cc3)cccc12
inactive: A498 > 100 µM | IGROV-1 > 100 µM | SNB-78 > 100 µM | Malme-3M 74 µM | UO-31 46.3 µM | LOX IMVI 40.1 µM | CAKI-1 > 100 µM | SN12C > 100 µM | RXF 393 > 100 µM | HT-29 > 100 µM | CCRF-CEM 12.5 µM | SF-539 13.2 µM | A549 > 100 µM | ACHN > 100 µM | LXFL 529 45.2 µM | UACC-62 97.5 µM | OVCAR-8 57.9 µM | DLD-1 > 100 µM

COc1ccccc1NC(=O)CC(=O)N1N=C(c2ccccc2)C(/N=N/c2ccc(Cl)cc2)C1=O (stereo not given)
inactive: A498 15.2 µM | IGROV-1 29.9 µM | SNB-78 > 100 µM | UO-31 18.2 µM | LOX IMVI 22.9 µM | CAKI-1 19.5 µM | SN12C 68.1 µM | HT-29 42.7 µM | SF-539 36.8 µM | A549 25.1 µM | ACHN 19.2 µM | LXFL 529 47.6 µM | UACC-62 25.7 µM | OVCAR-8 41.8 µM | DLD-1 49.7 µM

CC1(C)N=C(c2ccccn2)C(c2ccccn2)=NC1(C)C
inactive: A498 > 100 µM | IGROV-1 > 100 µM | SNB-78 > 100 µM | Malme-3M > 100 µM | UO-31 > 100 µM | LOX IMVI > 100 µM | CAKI-1 > 100 µM | SN12C > 100 µM | RXF 393 > 100 µM | HT-29 > 100 µM | CCRF-CEM > 100 µM | SF-539 > 100 µM | A549 > 100 µM | ACHN > 100 µM | LXFL 529 > 100 µM | UACC-62 > 100 µM | OVCAR-8 > 100 µM | DLD-1 > 100 µM

CC(=O)OCC1OC(OC2C(COC(C)=O)OC(Sc3ccccc3C)C(OC(C)=O)C2OC(C)=O)C(OC(C)=O)C(OC(C)=O)C1OC(C)=O (stereo not given)
inactive: A498 > 100 µM | IGROV-1 > 100 µM | SNB-78 > 100 µM | Malme-3M > 100 µM | UO-31 > 100 µM | CAKI-1 > 100 µM | SN12C > 100 µM | RXF 393 > 100 µM | HT-29 > 100 µM | SF-539 > 100 µM | A549 > 100 µM | ACHN > 100 µM | LXFL 529 > 100 µM | UACC-62 > 100 µM | DLD-1 > 100 µM

COc1cccc2nc3c(C(=O)NCCN(C)C)cccc3nc12
inactive: A498 9.27 µM | IGROV-1 16.1 µM | SNB-78 12.9 µM | Malme-3M 7.96 µM | UO-31 12.2 µM | LOX IMVI 4.2 µM | CAKI-1 17.1 µM | SN12C 9.2 µM | RXF 393 11.6 µM | HT-29 4.63 µM | CCRF-CEM 5.35 µM | SF-539 4.27 µM | A549 7.35 µM | ACHN 4.3 µM | LXFL 529 11.1 µM | UACC-62 12.6 µM | OVCAR-8 9.12 µM | DLD-1 5.68 µM

O=C(Cc1nc2ccccc2s1)C(=O)Nc1cccc(Cl)c1
inactive: A498 > 100 µM | IGROV-1 > 100 µM | SNB-78 > 100 µM | Malme-3M > 100 µM | UO-31 > 100 µM | LOX IMVI > 100 µM | CAKI-1 > 100 µM | SN12C > 100 µM | RXF 393 > 100 µM | HT-29 > 100 µM | CCRF-CEM > 100 µM | SF-539 > 100 µM | A549 > 100 µM | ACHN > 100 µM | LXFL 529 > 100 µM | UACC-62 > 100 µM | OVCAR-8 > 100 µM | DLD-1 > 100 µM

[N-]=[N+]=C1C(=O)C2CC3CC1CC2C3 (stereo not given)
inactive: A498 > 100 µM | IGROV-1 > 100 µM | SNB-78 > 100 µM | Malme-3M > 100 µM | UO-31 > 100 µM | LOX IMVI > 100 µM | CAKI-1 > 100 µM | SN12C > 100 µM | RXF 393 > 100 µM | HT-29 > 100 µM | CCRF-CEM > 100 µM | SF-539 > 100 µM | A549 > 100 µM | ACHN > 100 µM | LXFL 529 > 100 µM | UACC-62 > 100 µM | OVCAR-8 > 100 µM | DLD-1 > 100 µM

CC1CCCP(=O)(c2ccccc2)CCC1 (stereo not given)
inactive: A498 > 100 µM | IGROV-1 > 100 µM | SNB-78 > 100 µM | Malme-3M > 100 µM | UO-31 > 100 µM | LOX IMVI > 100 µM | CAKI-1 > 100 µM | SN12C > 100 µM | RXF 393 > 100 µM | HT-29 > 100 µM | CCRF-CEM > 100 µM | SF-539 > 100 µM | A549 > 100 µM | ACHN > 100 µM | LXFL 529 > 100 µM | UACC-62 > 100 µM | OVCAR-8 > 100 µM | DLD-1 > 100 µM

N#CC1(Cc2ccccc2[N+](=O)[O-])c2ccccc2C2C(N1C(=O)c1ccccc1)C2(Cl)Cl (stereo not given)
inactive: A498 78 µM | IGROV-1 > 100 µM | SNB-78 77.3 µM | Malme-3M > 100 µM | UO-31 > 100 µM | LOX IMVI > 100 µM | CAKI-1 > 100 µM | SN12C > 100 µM | RXF 393 > 100 µM | HT-29 > 100 µM | CCRF-CEM > 100 µM | SF-539 > 100 µM | A549 > 100 µM | ACHN 13.2 µM | LXFL 529 > 100 µM | UACC-62 > 100 µM | OVCAR-8 > 100 µM | DLD-1 3.6 µM

CCOC(=N)CC(=O)Nc1cccc(Cl)c1
inactive: A498 > 100 µM | IGROV-1 > 100 µM | SNB-78 5.65 µM | Malme-3M 31.7 µM | UO-31 > 100 µM | LOX IMVI > 100 µM | CAKI-1 > 100 µM | SN12C 51.2 µM | RXF 393 > 100 µM | HT-29 > 100 µM | CCRF-CEM > 100 µM | SF-539 > 100 µM | A549 > 100 µM | ACHN > 100 µM | LXFL 529 > 100 µM | UACC-62 > 100 µM | OVCAR-8 > 100 µM | DLD-1 > 100 µM

Cc1cccc(-c2nnc3s/c(=C\c4ccc5c(c4)OCO5)c(=O)n23)c1
inactive: A498 > 100 µM | IGROV-1 > 100 µM | SNB-78 > 100 µM | Malme-3M > 100 µM | UO-31 > 100 µM | LOX IMVI > 100 µM | CAKI-1 > 100 µM | SN12C > 100 µM | RXF 393 > 100 µM | CCRF-CEM > 100 µM | SF-539 > 100 µM | A549 > 100 µM | ACHN > 100 µM | LXFL 529 > 100 µM | UACC-62 > 100 µM | OVCAR-8 > 100 µM | DLD-1 > 100 µM

CC1=C(C(=O)Nc2ccccc2C)C(c2ccccc2)C(C(=O)Nc2ccccc2C)=C(C)N1
inactive: A498 29.7 µM | IGROV-1 42.7 µM | SNB-78 32.9 µM | Malme-3M 35.1 µM | UO-31 35.2 µM | LOX IMVI 16 µM | CAKI-1 24.9 µM | SN12C 56.6 µM | RXF 393 23.9 µM | HT-29 34.7 µM | CCRF-CEM 20.9 µM | SF-539 60.4 µM | A549 59 µM | ACHN 26.3 µM | LXFL 529 30.5 µM | UACC-62 27.1 µM | OVCAR-8 52 µM | DLD-1 41 µM
